Assays:
Assay type in all cases: cell-based, murine
Settings in all cases: without AMF
MC-38 cells [1] = test: Detection of intracellular free radicals (H2DCFDA)
Protocol: Additionally, intracellular free radical generation by IONC-AAPH was measured using 2′,7′-dichlorodihydrofluorescein diacetate (H2DCFDA) as an intracellular free radical probe. H2DCFDA is a non-fluorescent cell-permeant compound. Upon oxidation by free radicals, H2DCFDA is converted to a highly fluorescent 2′,7′-dichlorofluorescein (DCF). MC-38 cells (murine colon adenocarcinoma cell line) were pre-incubated with IONC or IONC-AAPH (at 300 μg Fe/mL concentration) for 1 h to allow internalization into cells. The intracellular IONC and IONC-AAPH were 0.79±0.16 and 0.87±0.12 pg Fe/cell, respectively, as quantified by a ferrozine-based colorimetric assay. After internalization, the cells were exposed to AMF for 1 h. The intracellular free radicals in the MC-38 cells were then examined with H2DCFDA through fluorescence microscopy and flow cytometry. FIG. 4 illustrates a flow cytometry analysis of intracellular free radicals in MC-38 cells detected via fluorescence from DCF. Further, FIG. 5 is a graph illustrating the quantification of intracellular free radicals (e.g., quantification of the mean fluorescence of DCF). The data in FIG. 5 represents the mean DCF fluorescence of each group +the standard error of mean (s.e.m.).
Detection of intracellular free radicals: The intracellular generation of free radicals was determined using H2DCFDA probe. […]

MC-38 cells [2] = test: Detection of DNA damage (γ-H2AX staining)
Protocol: Hyperthermia treatment may induce lipid peroxidation, DNA damage, protein denaturation, and cell organelle disruption. In addition, carbon-centered free radicals generated from AAPH are highly reactive and can damage lipid, DNA, protein, and other biomolecules, leading to cell death. Thus, to understand the cell-killing mechanisms of IONC-AAPH under AMF, the effects of IONC-AAPH on various cellular components, including DNA, F-actin, mitochondria, gluthathione (GSH), and lipids, were evaluated. γ-H2AX is a sensitive marker of DNA damage and has been extensively used in research and clinical studies. It forms foci around the site of DNA double-strand break (DSB).
FIG. 7 depicts the quantification of γ-H2AX expression based on fluorescence intensity.
Detection of DNA damage: The DNA damage induced by IONC-AAPH treatment was detected by γ-H2AX staining. MC-38 cells were seeded in 4-compartment cell culture dishes and cultured overnight. Then the cells were treated with 300 μg Fe/mL of IONC-AAPH or IONC at 37° C. or under AMF for 90 min. Four hours after the treatment, the cells were fixed with 4% paraformaldehyde for 20 min, permeabilized with 0.2% Triton X-100 for 20 min and blocked with 3% bovine serum albumin (BSA) for 30 min at room temperature. […] The cells were imaged with a Nikon A1-Rsi confocal microscope and the fluorescence intensity of γ-H2AX was analyzed with ImageJ software.

MC-38 cells [3] = test: Mitochondrial membrane potential (JC-1 staining)
Excerpt: JC-1 dye was used to examine the effect of heat and free radical generation by IONC-AAPH on mitochondria. JC-1 dye is an indicator of mitochondrial membrane potential (MMP). In healthy cells with high MMP, JC-1 accumulates in the mitochondria and forms J-aggregates, which emit red fluorescence. In contrast, apoptotic cells with low MMP, JC-1 diffuses in the cytoplasm and remains as J-monomers, which give green fluorescence. A decrease in J-aggregates to J-monomers ratio indicates MMP loss (i.e., mitochondrial depolarizations). […] The J-aggregates to J-monomers ratios quantified using flow cytometry confirmed the significant MMP loss due to heat and free radicals, as illustrated in FIGS. 9 (depicting results of flow cytometry analysis of mitochondrial membrane potential of MC-38 cells 4 h after treatment by JC-1 staining) and 10 (depicting quantification of the J-aggregate to J-monomer ratio using the mean fluorescence detected by flow cytometry in FIG. 9).
Determination of mitochondrial health: The mitochondrial membrane potential of MC-38 cells was determined with JC-1 staining assay. […] After staining, the cells were imaged with a confocal microscope (Nikon A1-Rsi confocal) or analyzed on a flow cytometer (BD Accuri C6 Plus). The ratio of J-aggregates to J-monomers was calculated using the red and green fluorescence intensity measured by flow cytometry.

MC-38 cells [4] = test: Lipid peroxidation (MDA level)
Protocol: Further, the effect of IONC-AAPH induced heat and free radicals on lipids was quantified by measuring the level of malondialdehyde (MDA). Malondialdehyde (MDA) is one of the final products of lipid peroxidation. MDA is a widely used biomarker of oxidative stress. Accordingly, the extent of lipid peroxidation after IONC-AAPH treatment was measured via MDA levels. FIG. 12 illustrates a quantification of MDA levels in MC-38 cells 2 hours after treatment. It was observed that the MC-38 cells treated with free AAPH, IONC, and IONC-AAPH, respectively, without AMF, as well as cells treated with IONC under AMF had some increase in MDA levels compared with that of control cells, as shown in FIG. 12. The low levels of lipid peroxidation in these groups may have resulted from the free radicals generated from the slow decomposition of AAPH at 37° C., or the IONC induced fenton/fenton-like reaction, or their combination (IONC-AAPH without AMF).
Determination of lipid peroxidation: The lipid peroxidation of MC-38 cells was determined by measuring the production of malondialdehyde (MDA). MC-38 cells cultured in 4-compartment cell culture dishes were treated with 300 μg Fe/mL of IONC-AAPH or IONC at 37° C. or under AMF for 2 h. Two hours post the treatment, the cells were lysed, and the MDA levels were quantified using a fluorescence-based MDA Assay Kit following the manufacturer's instructions.

`CC(C)(N=NC(C)(C)C(=N)N)C(=N)N.Cl.Cl` [AAPH, 2,2′-azobis(2-amidinopropane) dihydrochloride] was tested, and the “intracellular free radicals (DCF fluorescence)” value (MC-38 cells [1]) was “negligible fluorescence”, the “γ-H2AX foci (DNA damage)” value (MC-38 cells [2]) was “low numbers of γ-H2AX foci” and the “JC-1 state (mitochondrial membrane potential)” value (MC-38 cells [3]) was “J-aggregates were formed”. For the same compound, the “MDA level vs control cells” value (MC-38 cells [4]) was “some increase”.
